Test results reported in US10548321B2 (priority 2009, dated 2020).
Like-named read-outs stand apart in the source and are kept apart here.

Tested on: Pyricularia oryzae
Assay type: cell-based
Conditions: single active, absorption at 405 nm 7 days after inoculation, 18° C

Row | Compound | Observed efficacy (0.004 ppm) | Observed efficacy (1 ppm)
1 | COC(=O)N(OC)c1ccccc1COc1ccn(-c2ccc(Cl)cc2)n1 [Pyraclostrobin, pyraclostrobin] | 23% | –
2 | CC1(C)C(C=C(Cl)Cl)C1C(=O)OC(C#N)c1cccc(Oc2ccccc2)c1 (stereo not drawn) [alpha-Cypermethrin, alpha-cypermethrin] | – | 1%
